Counter-ions that a name gives are not always drawn.
Key:
human MC4 receptor = target: T1, human MC4 receptor (Homo sapiens, UniProt P32245); assay: MC4 receptor binding assay; conditions: HEK-293 cell membranes expressing human MC4 receptor; [125I]Nle4-D-Phe7-α-MSH 0.2 nM; 25° C., 120 minutes
T1 construct: purchased Biolinks Co; host or cells: HEK-293 cell membranes
Protocol: Experiment 1 [MC4 Receptor Binding Assay]
MC4 receptor binding assay was carried out according to the method described in Pharmacology & Taxicology, 79, 161-165, 1996, HEK-293 cell membranes expressing the human MC4 receptor were purchased from Biolinks Co. The cell membranes were homogenized in a 50 mM Tris hydrochloric acid buffer solution (pH 7.4) containing 2 mM ethylenediamine tetraacetic acid, 10 mM calcium chloride and 100 μM phenylmethanesulfonyl-fluoride. The homogenate was centrifuged at 48,000×g for 20 minutes at 4° C. The precipitate obtained by centrifugation was again homogenized in the same buffer solution, and the homogenate was centrifuged at 48,000×g for 20 minutes at 4° C. This procedure was repeated twice. The precipitate was suspended in 50 mM Tris hydrochloric acid buffer solution (pH 7.4) containing 2 mM ethylenediamine tetraacetic acid, 10 mM calcium chloride, 100 μM phenylmethanesulfonylfluoride and 0.1% bovine serum albumin to adjust to a protein concentration of 100 μg/ml to give a crude membrane preparation which was used for the binding assay. […] The radioactivity on the filter paper was measured in a gamma-counter. […] The IC50 value was calculated from the inhibition curve in the concentration range of 10^−9-10^−5.

[1] = system: recombinant human melanocortin receptors; assay: Antagonism in recombinant human melanocortin receptors
Male SD rats [2] = assay: Anti-anxiety action in Vogel test (Conflict test) in rats; assay type: in vivo, rat; conditions: subcutaneous 1 mg/kg, 3 mg/kg or 10 mg/kg, 30 minutes before test; electric shock 1.0 mA; 3 minutes; FIG. 2
Protocol: Anti-anxiety action of Compound 4 in Table 1 in Vogel test (Conflict test) in rats was studied.
Male SD rats weighing 220 to 240 g (Charles River Japan Inc.) were used. Rats deprived of drinking water for 48 hours were divided into 10 animals for each group. To rats of group to be administered with the test compound was subcutaneously administered the test compound which was prepared by dissolving a predetermined amount of Compound 4 in Table 1 in saline for injection and adding 0.5 M aqueous sodium hydroxide solution to adjust to pH 4-5. Thirty minutes after the administration, rats were placed in a apparatus for the test, and drinking behaviors during the time of free access to drinking water for 3 minutes were measured. During the time of free access to drinking water, an electric shock (1.0 mA) was released, every 2 seconds of cumulative licking time to the drinking nozzle. The evaluation of this experiment was carried out using the number of the electric shocks.

[3] = system: olfactory bulbectomized rats; assay: Anti-depressant action in olfactory bulbectomized rats (open field); assay type: in vivo, rat; conditions: subcutaneous 1 mg/kg, 3 mg/kg or 10 mg/kg once a day for 2 weeks; test 24 hours after final administration; 3 minutes; FIG. 4
Excerpt: Anti-depressant action of Compound 4 in Table 1 in olfactory bulbectomized rats was studied. Male SD rats weighing 220 to 240 g (Charles River Japan Inc.) were used. Rats were anesthetized with sodium pentobarbital, the olfactory bulbs were removed by suction using a metal pipe linked to a water aspirator. Two weeks after the removal of the olfactory bulbs, rats were divided into 10 to 11 animals for each group. The rats of one group were subcutaneously administered once a day for 2 weeks with the test drug which was prepared by dissolving a predetermined amount of the test drug in saline for injection and adding 0.5 M aqueous sodium hydroxide solution to adjust to pH 4-5. Twenty four hours after the final administration, the rats were placed in the center of a circular open field apparatus (70 cm diameter 25 blocks), and the number of crossings among blocks during 3 minutes was counted.

Male SD rats [4] = assay: Anti-anxiety action in forced swim stress-induced anxiety model of rats (elevated plus-maze test); assay type: in vivo, rat; conditions: subcutaneous 0.3 mg/kg, 1 mg/kg or 3 mg/kg, 30 minutes before 2-minute forced swim stress, 5-minute period, FIG. 3
Protocol: Anti-anxiety action of Compound 4 in Table 1 in forced swim stress-induced anxiety model of rats was studied.
Male SD rats weighing 220 to 240 g (Charles River Japan Inc.) were used. Rats were divided into 10 animals for each group. To rats of group to be administered with the test compound was subcutaneously administered the test compound which was prepared by dissolving a predetermined amount of the test drug in saline for injection and adding 0.5 M aqueous sodium hydroxide solution to adjust to pH 4-5. Thirty minutes after the administration, rats were exposed to a forced swim stress by placing in a black cylinder (20 cm internal diameter, 40 cm high) containing 25 cm deep of water maintained at 25° C. Duration of the forced swim stress was 2 minutes, and the anti-anxiety action was studied by the elevated plus-maze test, which was carried out 5 minutes after the forced swim stress.
The elevated plus-maze used for the test consisted of open arms (10 cm wide, 50 cm long) and close arms (10 cm wide, 50 cm long), and the open arms and the enclosed arms were covered with 1 cm-high and 40 cm-high transparent Plexiglas, respectively. The plus-maze was placed in 50 cm high from the floor. Luminosity at the center of the maze was 40 lux. […] The amount of time spent in open arms of the maze was recorded during a 5-minute period.

Male SD rats [5] = assay: Anxiogenic-like activity in Vogel test in rat (Proconflict test); assay type: in vivo; conditions: intracerebroventricular administration, 30 minutes before test; electric shock 0.4 mA; 3 minutes; FIG. 1
Protocol: Anxiogenic-like activity inducing action by α-MSH and MTII in Vogel test in rat (Proconflict test) was studied.
α-MSH and MTII were purchased from Peninsula Laboratories. Male SD rats weighing 220 to 240 g (Charles River Japan Inc.) were used for animals. Rats deprived of drinking water for 48 hours were divided into 5 animals for each group. The test compound was administered to rats intracerbroventricularly at 10 μl/2 min. of the test compound which was prepared by dissolving a predetermined amount of α-MSH or MTII in saline containing 0.1% bovine serum albumin. To control rats which were not administered test compound, saline containing 0.1% bovine serum albumin was administered intracerebroventricularly at 10 μl/2 min. Thirty minutes after the administration, rats were placed in a apparatus for the test, and drinking behaviors during the time of free access to drinking water for 3 minutes were measured. During the time of free access to drinking water, an electric shock (0.4 mA) was released, every 2 seconds of cumulative licking time to the drinking nozzle. The evaluation of this experiment was carried out using the number of the electric shocks.

T1 sequence (P32245 whole entry): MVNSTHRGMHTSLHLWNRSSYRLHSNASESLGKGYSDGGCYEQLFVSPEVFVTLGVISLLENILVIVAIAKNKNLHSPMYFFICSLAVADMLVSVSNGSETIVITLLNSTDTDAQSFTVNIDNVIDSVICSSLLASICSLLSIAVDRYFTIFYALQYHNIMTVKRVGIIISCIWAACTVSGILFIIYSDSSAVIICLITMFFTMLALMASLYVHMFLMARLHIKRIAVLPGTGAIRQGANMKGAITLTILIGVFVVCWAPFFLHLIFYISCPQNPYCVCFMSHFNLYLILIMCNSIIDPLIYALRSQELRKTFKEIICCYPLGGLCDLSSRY

Molecule	melting point [°C]	other results
CC(C)N1CCN(C(CN2CCN(CCCCc3cccc4ccccc34)CC2)c2ccc(F)cc2)CC1.O=C(O)/C=C\C(=O)O.O=C(O)/C=C\C(=O)O.O=C(O)/C=C\C(=O)O (stereo not shown)	127 to 129	–
N=C(N)N1CCN(C(CN2CCN(CCCCc3cccc4ccccc34)CC2)c2ccc(F)cc2)CC1.O=C(O)/C=C\C(=O)O.O=C(O)/C=C\C(=O)O.O=C(O)/C=C\C(=O)O (stereo not shown)	171 to 173	–
COc1ccc(C(CN2CCN(CCCCc3cccc4ccccc34)CC2)N2CCN(C)CC2)cc1.O=C(O)/C=C\C(=O)O.O=C(O)/C=C\C(=O)O.O=C(O)/C=C\C(=O)O (stereo not shown)	138 to 140	–
CN1CCN(C(CN2CCN(CCCCc3cccc4ccccc34)CC2)c2ccc(N)cc2)CC1.O=C(O)/C=C\C(=O)O.O=C(O)/C=C\C(=O)O.O=C(O)/C=C\C(=O)O (stereo not shown)	152 to 154	–
CN1CCN(C(CN2CCN(CCCCc3noc4cc(F)ccc34)CC2)c2ccc(F)cc2)CC1.O=C(O)/C=C\C(=O)O.O=C(O)/C=C\C(=O)O.O=C(O)/C=C\C(=O)O (stereo not shown)	170 to 173	–
CN1CCN(C(CN2CCN(CCCCc3cccc4ccccc34)CC2)c2ccc(F)cc2)CC1.Cl (stereo not shown)	193 to 195	–
CC(C)Oc1ccc2ccccc2c1CCCCN1CCN(CC(c2ccc(F)cc2)N2CCN(C(C)C)CC2)CC1.O=C(O)/C=C\C(=O)O.O=C(O)/C=C\C(=O)O.O=C(O)/C=C\C(=O)O (stereo not shown)	167 to 169	–
COc1ccc2ccccc2c1CCCCN1CCN(CC(c2ccc(F)cc2)N2CCN(C(C)C)CC2)CC1.Cl.Cl.Cl.Cl (stereo not shown)	183 to 185	–
COc1ccc2ccccc2c1CCCCN1CCN(CC(c2ccc(F)cc2)C2CCN(C(C)C)CC2)CC1.Cl.Cl.Cl (stereo not shown)	233 to 235	–
CN1CCC(O)(C(CN2CCN(CCCCc3cccc4ccccc34)CC2)c2ccc(F)cc2)CC1.Cl.Cl.Cl (stereo not shown)	156 to 160	–
CN1CCN(C(CN2CCN(CCCCc3cccc4ccccc34)CC2)c2ccc(F)cc2)CC1 (single isomer, unassigned; (-)) [Compound 6, (−)-1-[2-(4-Fluorophenyl)-2-(4-methylpiperazino)ethyl]-4-[4-naphthalen-1-yl-butyl]piperazine hydrochloride]	–	IC50 (human MC4 receptor): 0.09 µM
CN1CCN(C(CN2CCN(CCCCc3cccc4ccccc34)CC2)c2ccc(F)cc2)CC1.Cl.Cl.Cl.Cl (stereo not shown) [Compound 4, 1-[2-(4-fluorophenyl)-2-(4-methylpiperazino)ethyl]-4-(4-naphthalen-1-yl-butyl)piperazine tetrahydrochloride]	193 to 195	action in recombinant human melanocortin receptors (selectivity) [1]: high selective antagonist; decreased number of times of drinking water (number of the electric shocks) caused by electric shock (Male SD rats [2]): significantly, dose-dependently antagonized; IC50 (human MC4 receptor): 0.164 µM; increased number of crossings among blocks in the open field [3]: significantly, dose-dependently antagonized; decreased amount of time spent in open arms after forced swim stress (Male SD rats [4]): significantly, dose-dependently antagonized
MTII	–	number of times of drinking water (number of the electric shocks) in comparison with the control group (Male SD rats [5]): dose-dependently, significantly decreased
α-MSH (Ac-SYSMEHFRWGKPV-NH2; ends and bridges not checked; UniProt P01189 138-150, looked up) [melanocyte stimulating hormone (melanocortin produced from POMC), purchased from Peninsula Laboratories]	–	number of times of drinking water (number of the electric shocks) in comparison with the control group (Male SD rats [5]): dose-dependently, significantly decreased

Source: patent publication US6949552B2, “Remedial agent for anxiety neurosis or depression and piperazine derivative” (Taisho Pharmaceutical Co., Ltd., priority 2000, dated 2005)
